What was measured:
[1] = target: T1, ΔF508-CFTR (Homo sapiens, UniProt P13569, DEL508-508); test: CFTR cell surface levels using HRP-tagged ΔF508-CFTR expressing CFBE cells, in the presence of a co-corrector; type: cell-based; conditions: HRP-tagged ΔF508-CFTR expressing CFBE cells, in the presence of 3 μM co-corrector; for EC50: read-out: EC50
T1 construct: host or cells: CFBE41o-, doxycycline-inducible
Outline: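 Cells were seeded with 0.5 μg/mL doxycycline and held 68 h at 37 °C. Test compounds plus 3 μM co-corrector (final 0.1% DMSO) were then added for 20 h at 33 °C. Washed cells received HRP substrate, and luminescence was normalized between DMSO and 3 μM co-corrector controls.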

[2] = target: T1, ΔF508-CFTR; test: CFTR cell surface levels using HRP-tagged ΔF508-CFTR expressing CFBE cells, intrinsic corrector capacity; type: cell-based; conditions: for EC50: read-out: EC50
Outline: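 Here the cells express ΔF508-CFTR with horseradish peroxidase inserted in extracellular loop 4, so only rescued channel at the surface gives luminescent signal. Compounds act on their own, 20 h at the reduced temperature of 33 °C; values are percent activity relative to DMSO and a 3 μM corrector.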

[3] = HRP-tagged ΔF508-CFTR expressing CFBE cells, intrinsic corrector capacity (no co-corrector), 33° C., 20 hours
[4] = HRP-tagged ΔF508-CFTR CFBE cells, compound alone (intrinsic corrector capacity), 20 hours at 33° C.

T1 sequence (P13569 with tags, fused parts or gaps DEL508-508): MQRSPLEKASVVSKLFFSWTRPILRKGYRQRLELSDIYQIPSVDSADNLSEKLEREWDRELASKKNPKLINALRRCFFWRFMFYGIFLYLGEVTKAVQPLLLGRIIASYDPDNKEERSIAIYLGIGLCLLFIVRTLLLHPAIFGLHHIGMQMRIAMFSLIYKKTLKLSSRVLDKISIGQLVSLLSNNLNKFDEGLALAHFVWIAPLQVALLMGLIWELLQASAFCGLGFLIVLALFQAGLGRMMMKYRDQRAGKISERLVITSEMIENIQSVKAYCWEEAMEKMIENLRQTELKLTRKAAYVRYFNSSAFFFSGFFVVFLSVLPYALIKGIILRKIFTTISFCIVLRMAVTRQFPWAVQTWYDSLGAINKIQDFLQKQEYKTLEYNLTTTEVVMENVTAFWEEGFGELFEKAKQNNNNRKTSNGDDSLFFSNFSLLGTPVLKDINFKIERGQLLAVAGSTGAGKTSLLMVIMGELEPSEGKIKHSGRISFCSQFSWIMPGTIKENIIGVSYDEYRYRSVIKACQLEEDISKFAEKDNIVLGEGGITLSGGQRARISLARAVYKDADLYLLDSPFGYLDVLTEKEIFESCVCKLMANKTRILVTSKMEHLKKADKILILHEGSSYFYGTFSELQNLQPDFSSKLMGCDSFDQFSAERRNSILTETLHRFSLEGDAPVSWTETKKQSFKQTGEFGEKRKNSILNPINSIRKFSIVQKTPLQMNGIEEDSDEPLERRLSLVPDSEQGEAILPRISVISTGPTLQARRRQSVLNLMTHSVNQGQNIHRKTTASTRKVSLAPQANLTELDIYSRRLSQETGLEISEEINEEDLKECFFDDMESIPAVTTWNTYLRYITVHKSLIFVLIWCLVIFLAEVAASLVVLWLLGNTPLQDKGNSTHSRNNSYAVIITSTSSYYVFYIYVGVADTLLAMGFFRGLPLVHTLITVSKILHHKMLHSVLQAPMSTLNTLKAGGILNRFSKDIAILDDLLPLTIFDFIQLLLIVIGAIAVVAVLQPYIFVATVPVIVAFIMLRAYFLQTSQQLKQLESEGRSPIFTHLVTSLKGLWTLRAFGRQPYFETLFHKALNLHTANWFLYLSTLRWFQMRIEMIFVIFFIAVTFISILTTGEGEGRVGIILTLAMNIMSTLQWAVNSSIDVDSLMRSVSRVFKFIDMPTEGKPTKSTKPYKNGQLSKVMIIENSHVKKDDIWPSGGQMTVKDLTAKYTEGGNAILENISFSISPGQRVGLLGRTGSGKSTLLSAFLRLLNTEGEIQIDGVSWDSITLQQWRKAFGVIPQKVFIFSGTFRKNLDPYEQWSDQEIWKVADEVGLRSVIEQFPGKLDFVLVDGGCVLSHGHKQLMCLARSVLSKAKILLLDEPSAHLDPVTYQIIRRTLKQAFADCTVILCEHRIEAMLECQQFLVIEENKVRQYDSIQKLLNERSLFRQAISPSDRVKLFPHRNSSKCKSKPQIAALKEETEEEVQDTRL

Compound | % Activation [1] | EC50 [1] | % Activation [2, 3] | EC50 [2, 3] | % Activation [2, 4] | EC50 [2, 4]
O=C(O)c1cc(N2CCC3(CC2)CCN(C2CC2)CC3)c2c(C3CCC3)nn(-c3ccc(F)cc3)c2n1 [compound 887, 3-cyclobutyl-4-(9-cyclopropyl-3,9-diazaspiro[5.5]undecan-3-yl)-1-(4-fluorophenyl)-1H-pyrazolo[3,4-b]pyridine-6-carboxylic acid] | 375.13% | 0.204 µM | 191.35% | 0.361 µM |  | 
CC(C)N1CCC2(CCN(c3cc(C(=O)O)nc4c3c(C3CCC3)nn4-c3ccc(F)cc3)CC2)CC1 [compound 890, 3-cyclobutyl-1-(4-fluorophenyl)-4-[9-(propan-2-yl)-3,9-diazaspiro[5.5]undecan-3-yl]-1H-pyrazolo[3,4-b]pyridine-6-carboxylic acid] | 406.67% | 0.225 µM | 179% | 0.742 µM |  | 
COC1CCN(C2CCN(c3cc(C(=O)O)nc4c3c(C3CCC3)nn4-c3ccc(F)cc3)CC2)CC1 [compound 892, 3-cyclobutyl-1-(4-fluorophenyl)-4-(4-methoxy[1,4′-bipiperidin]-1′-yl)-1H-pyrazolo[3,4-b]pyridine-6-carboxylic acid] | 428.72% | 0.602 µM | 196.44% | 0.603 µM |  | 
O=C(O)c1cc(N2CCC3(CC2)CCN(C2CCC2)CC3)c2c(C3CCC3)nn(-c3ccc(F)cc3)c2n1 [compound 894, 3-cyclobutyl-4-(9-cyclobutyl-3,9-diazaspiro[5.5]undecan-3-yl)-1-(4-fluorophenyl)-1H-pyrazolo[3,4-b]pyridine-6-carboxylic acid] | 371.3% | 0.218 µM | 164% | 0.304 µM |  | 
COCCN1CCC2(CC1)CCN(c1cc(C(=O)O)nc3c1c(C1CCC1)nn3-c1ccc(F)cc1)CC2 [compound 897, 3-cyclobutyl-1-(4-fluorophenyl)-4-[9-(2-methoxyethyl)-3,9-diazaspiro[5.5]undecan-3-yl]-1H-pyrazolo[3,4-b]pyridine-6-carboxylic acid] | 354.93% | 0.186 µM | 151.25% | 0.348 µM |  | 
O=C(O)c1cc(N2CCC(N3CCC(O)CC3)CC2)c2c(C3CCC3)nn(-c3ccc(F)cc3)c2n1 [compound 898, 3-cyclobutyl-1-(4-fluorophenyl)-4-(4-hydroxy[1,4′-bipiperidin]-1′-yl)-1H-pyrazolo[3,4-b]pyridine-6-carboxylic acid] | 393.6% | 3.33 µM | 231.6% | 3.24 µM |  | 
O=C(O)c1cc(N2CCC(N3CCOCC3)CC2)c2c(C3CCC3)nn(-c3cccc(OC(F)F)c3)c2n1 [compound 910, 3-cyclobutyl-1-[3-(difluoromethoxy)phenyl]-4-[4-(morpholin-4-yl)piperidin-1-yl]-1H-pyrazolo[3,4-b]pyridine-6-carboxylic acid] | 499.9% | 0.0791 µM | 286.2% | 0.187 µM |  | 
CC(F)(F)c1cccc(-n2nc(C3CCC3)c3c(N4CCC(N5CCOCC5)CC4)cc(C(=O)O)nc32)c1 [compound 915] | 587.95% | 0.0502 µM |  |  | 386.2% | 0.394 µM
CC(C)Oc1cccc(-n2nc(C3CCC3)c3c(N4CCC(N5CCOCC5)CC4)cc(C(=O)O)nc32)n1 [compound 924, 3-cyclobutyl-4-[4-(morpholin-4-yl)piperidin-1-yl]-1-{6-[(propan-2-yl)oxy]pyridin-2-yl}-1H-pyrazolo[3,4-b]pyridine-6-carboxylic acid] | 609.82% | 0.136 µM |  |  | 374.45% | 0.42 µM
CC(C)Oc1nn(C2CCCCC2)c2nc(C(=O)O)cc(-c3ccc(CN4CC(N(C)C)C4)cc3)c12 [compound 927, 1-cyclohexyl-4-(4-{[3-(dimethylamino)azetidin-1-yl]methyl}phenyl)-3-[(propan-2-yl)oxy]-1H-pyrazolo[3,4-b]pyridine-6-carboxylic acid] | 362.92% | 1.1 µM |  |  | 150.78% | 1.25 µM

Reference: US9796711B2, “Substituted pyrazolo[3,4-b]pyridin-6-carboxylic acids and method of use” (AbbVie S.àr.l., priority 2015, dated 2017)
